Legend:
full length human TREX1 = target: T1, full length human TREX1 (Homo sapiens, UniProt Q9NSU2); experiment: TREX1 Biochemical Assay (fluorescence assay, degradation of dsDNA substrate); settings: 150 pM TREX1, 60 nM dsDNA substrate, 25 minutes at room temperature
T1 construct: N-terminally His-Tev tagged full length human TREX1; His-Tev (His tag with TEV site) (N); made in house; host or cells: E. coli
T1 sequence (Q9NSU2 1-314): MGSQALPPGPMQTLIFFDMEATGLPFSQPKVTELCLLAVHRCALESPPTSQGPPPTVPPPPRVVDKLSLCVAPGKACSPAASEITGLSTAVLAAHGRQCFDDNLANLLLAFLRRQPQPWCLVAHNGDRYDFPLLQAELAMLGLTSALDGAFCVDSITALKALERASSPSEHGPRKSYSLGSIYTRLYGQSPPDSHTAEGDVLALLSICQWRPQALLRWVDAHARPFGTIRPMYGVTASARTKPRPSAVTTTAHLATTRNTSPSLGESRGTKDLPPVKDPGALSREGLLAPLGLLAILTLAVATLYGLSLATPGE
Protocol: Degradation of the dsDNA liberates free fluorophore to produce a fluorescent signal. Specifically, 7.5 μL of N-terminally His-Tev tagged full length human TREX1 (expressed in E. coli and purified in house) in reaction buffer (50 mM Tris (pH 7.4), 150 mM NaCl, 2 mM DTT, 0.1 mg/mL BSA, 0.01% (v/v) Tween-20 and either 100 mM MgCl2) was added to a 384-well Black ProxiPlate Plus (Perkin Elmer) which already contained compound (150 nL) at varying concentrations as a 10 point dose-response in DMSO. To this was added 7.5 μL of dsDNA substrate (Strand A: 5′ TEX615/GCT AGG CAG 3′; Strand B: 5′ CTG CCT AGC/IAbRQSp (Integrated DNA Technologies)) in reaction buffer. Final concentrations were 150 pM TREX1, 60 nM dsDNA substrate in reaction buffer with 1.0% DMSO (v/v). After 25 minutes at room temperature, reactions were quenched by the addition of 5 μL of stop buffer (same as reaction buffer plus 200 mM EDTA). Final concentrations in the quenched reaction were 112.5 pM TREX1, 45 nM DNA and 50 mM EDTA in a volume of 20 μL. After a 5-minute incubation at room temperature, plates were read in a laser sourced Envision (Perkin-Elmer), measuring fluorescence at 615 nm following excitation w/570 nm light. IC50 values were calculated by comparing the measured fluorescence at 615 nm ratio relative to control wells pre-quenched w/stop buffer (100% inhibition) and no inhibitor (0% inhibition) controls as using non-linear least square four parameter fits and either Genedata or GraphPad Prism (GraphPad Software, Inc.).

[1] = target: T2, human TREX2 (residues M44-A279) (Homo sapiens, UniProt Q9BQ50); experiment: TREX2 Biochemical Assay (fluorescence assay, degradation of dsDNA substrate); settings: 2.5 nM TREX2, 60 nM dsDNA substrate, 25 minutes at room temperature
T2 construct: human TREX2 (residues M44-A279, expressed in E. coli); His-Tev (His tag with TEV site) (N); made in house; host or cells: E. coli
T2 sequence (Q9BQ50 44-279 isoform Q9BQ50-1): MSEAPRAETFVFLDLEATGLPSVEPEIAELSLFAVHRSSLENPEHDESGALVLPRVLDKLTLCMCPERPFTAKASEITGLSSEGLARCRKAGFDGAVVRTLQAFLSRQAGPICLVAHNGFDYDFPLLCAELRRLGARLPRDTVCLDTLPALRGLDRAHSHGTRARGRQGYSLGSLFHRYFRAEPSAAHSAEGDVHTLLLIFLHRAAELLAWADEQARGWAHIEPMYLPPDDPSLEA
Protocol: Degradation of the dsDNA liberates free fluorophore to produce a fluorescent signal. Specifically, 7.5 μL of N-terminally His-Tev tagged human TREX2 (residues M44-A279, expressed in E. coli and purified in house) in reaction buffer (50 mM Tris (pH 7.4), 150 mM NaCl, 2 mM DTT, 0.1 mg/mL BSA, 0.01% (v/v) Tween-20 and 100 mM MgCl2) was added to a 384-well Black ProxiPlate Plus (Perkin Elmer) which already contained compound (150 nL) at varying concentrations as a 10 point dose-response in DMSO. To this was added 7.5 μL of dsDNA substrate (Strand A: 5′ TEX615/GCT AGG CAG 3′; Strand B: 5′ CTG CCT AGC/IAbRQSp (IDT)) in reaction buffer. Final concentrations were 2.5 nM TREX2, 60 nM dsDNA substrate in reaction buffer with 1.0% DMSO (v/v). After 25 minutes at room temperature, reactions were quenched by the addition of 5 μL of stop buffer (same as reaction buffer plus 200 mM EDTA). Final concentrations in the quenched reaction mixture were […] TREX2, 45 nM DNA and 50 mM EDTA in a volume of 20 μL. After a 5-minute incubation at room temperature, plates were read in a laser sourced Envision (Perkin-Elmer), measuring fluorescence at 615 nm following excitation w/570 nm light. IC50 values were calculated by comparing the measured fluorescence at 615 nm ratio relative to control wells pre-quenched w/stop buffer (100% inhibition) and no inhibitor (0% inhibition) controls as using non-linear least square four parameter fits and either Genedata or GraphPad Prism (GraphPad Software, Inc.).

Row | SMILES | IC50 (full length human TREX1) | IC50 [1]
1 | Cc1ncc(N2CCC(O)(c3ccc(F)c(F)c3)CC2)nc1-c1cnn(C)c1 [Example 90, 4-(3,4-difluorophenyl)-1-(5-methyl-6-(1-methyl-1H-pyrazol-4-yl)pyrazin-2-yl)piperidin-4-ol] | 0.1 to 1 µM | > 100 µM
2 | Cc1nn(C)cc1-c1cc(C(N)=O)cc(N2CCC(O)(c3ccc(F)c(Cl)c3)CC2)n1 [Example 94, 2-(4-(3-chloro-4-fluorophenyl)-4-hydroxypiperidin-1-yl)-6-(1,3-dimethyl-1H-pyrazol-4-yl)isonicotinamide] | 0.1 to 1 µM | > 100 µM
3 | Cn1cc(-c2cncc(N3CCC(O)(c4ccc(F)cc4)CC3)n2)cn1 [Example 7, 4-(4-fluorophenyl)-1-(6-(1-methyl-1H-pyrazol-4-yl)pyrazin-2-yl)piperidin-4-ol] | 1 to 10 µM | > 100 µM
4 | OC1(c2ccc(F)cc2)CCN(c2cncc(-c3ccc(C(F)(F)F)cc3)n2)CC1 [Example 33, 4-(4-fluorophenyl)-1-(6-(4-(trifluoromethyl)phenyl)pyrazin-2-yl)piperidin-4-ol] | > 10 µM | > 100 µM
5 | OC1(c2ccccn2)CCN(c2cncc(-n3cccn3)n2)CC1 [Example 74, 1-(6-(1H-pyrazol-1-yl)pyrazin-2-yl)-4-(pyridin-2-yl)piperidin-4-ol] | > 10 µM | > 100 µM
6 | Cc1nn(C)cc1-c1cc(N2CCC(O)(c3ccc(F)c(F)c3)CC2)ccn1 [Example 49, 4-(3,4-difluorophenyl)-1-(2-(1,3-dimethyl-1H-pyrazol-4-yl)pyridin-4-yl)piperidin-4-ol] | 1 to 10 µM | > 100 µM
7 | Cn1cc(-c2nccc(N3CCC(O)(c4ccc(F)cc4)CC3)n2)cn1 [Example 36, 4-(4-fluorophenyl)-1-(2-(1-methyl-1H-pyrazol-4-yl)pyrimidin-4-yl)piperidin-4-ol] | 0.1 to 1 µM | > 100 µM
8 | Cn1cc(-c2cncc(N3CCC(O)(CCc4ccccc4)CC3)n2)cn1 [Example 6, 1-(6-(1-methyl-1H-pyrazol-4-yl)pyrazin-2-yl)-4-phenethylpiperidin-4-ol] | > 10 µM | > 100 µM
9 | OC1(c2ccc(F)cc2)CCN(c2cncc(-c3cnn(C(F)F)c3)n2)CC1 [Example 13, 1-(6-(1-(difluoromethyl)-1H-pyrazol-4-yl)pyrazin-2-yl)-4-(4-fluorophenyl)piperidin-4-ol] | 1 to 10 µM | > 100 µM
10 | COc1cc(N2CCC(O)(c3ccc(F)cc3)CC2)ncn1 [Example 85, 4-(4-fluorophenyl)-1-(6-methoxypyrimidin-4-yl)piperidin-4-ol] | 1 to 10 µM | > 100 µM
11 | Cc1nn(C)cc1-c1nnc(N2CCC(O)(c3ccc(F)c(F)c3)CC2)s1 [Example 95, 4-(3,4-difluorophenyl)-1-(5-(1,3-dimethyl-1H-pyrazol-4-yl)-1,3,4-thiadiazol-2-yl)piperidin-4-ol] | 1 to 10 µM | > 100 µM
12 | OC1(c2ccc(F)cc2)CCN(c2cncc(-c3cncnc3)n2)CC1 [Example 18, 4-(4-fluorophenyl)-1-(6-(pyrimidin-5-yl)pyrazin-2-yl)piperidin-4-ol] | 1 to 10 µM | > 100 µM
13 | OC1(c2cccnc2)CCN(c2cncc(-n3cccn3)n2)CC1 [Example 75, 1-(6-(1H-pyrazol-1-yl)pyrazin-2-yl)-4-(pyridin-3-yl)piperidin-4-ol] | > 10 µM | > 100 µM
14 | Cc1nc(-c2cn(C)nc2Cc2ccccc2)cc(N2CCC(O)(c3ccc(F)c(F)c3)CC2)n1 [Example 101, 1-(6-(3-benzyl-1-methyl-1H-pyrazol-4-yl)-2-methylpyrimidin-4-yl)-4-(3,4-difluorophenyl)piperidin-4-ol] | 0.1 to 1 µM | > 100 µM
15 | OC1(c2ccc(F)cc2)CCN(c2cncc(-c3cccc(F)c3)n2)CC1 [Example 26, 4-(4-fluorophenyl)-1-(6-(3-fluorophenyl)pyrazin-2-yl)piperidin-4-ol] | 1 to 10 µM | > 100 µM
16 | OC1(c2ccc(F)cc2)CCN(c2ccc3ccccc3n2)CC1 [Example 83, 4-(4-fluorophenyl)-1-(quinolin-2-yl)piperidin-4-ol] | > 10 µM | > 100 µM
17 | Cn1cc(-c2cncc(N3CCC(O)(c4ccc(F)c(F)c4)CC3)n2)c(C2CC2)n1 [Example 11, 1-(6-(3-cyclopropyl-1-methyl-1H-pyrazol-4-yl)pyrazin-2-yl)-4-(3,4-difluorophenyl)piperidin-4-ol] | 0.1 to 1 µM | 10 to 100 µM
18 | Cc1nn(C)cc1-c1ccnc(N2CCC(O)(c3ccc(F)c(F)c3)CC2)c1 [Example 55, 4-(3,4-difluorophenyl)-1-(4-(1,3-dimethyl-1H-pyrazol-4-yl)pyridin-2-yl)piperidin-4-ol] | > 10 µM | > 100 µM
19 | OC1(c2ccc(F)cc2)CCN(c2cncc(Cl)n2)CC1 [Example 84, 1-(6-chloropyrazin-2-yl)-4-(4-fluorophenyl)piperidin-4-ol] | 1 to 10 µM | > 100 µM
20 | OC1(c2ccc(F)cc2)CCN(c2cncc(-c3ccccc3C(F)(F)F)n2)CC1 [Example 31, 4-(4-fluorophenyl)-1-(6-(2-(trifluoromethyl)phenyl)pyrazin-2-yl)piperidin-4-ol] | 1 to 10 µM | > 100 µM
21 | Cn1cc(-c2cc(-c3cnn(C)c3)nc(N3CCC(O)(c4cccc(F)c4)CC3)c2)cn1 [Example 60, 1-(4,6-bis(1-methyl-1H-pyrazol-4-yl)pyridin-2-yl)-4-(3-fluorophenyl)piperidin-4-ol] | 1 to 10 µM | > 100 µM
22 | Cc1nn(C)cc1-c1nsc(N2CCC(O)(c3ccc(F)c(F)c3)CC2)n1 [Example 96, 4-(3,4-difluorophenyl)-1-(3-(1,3-dimethyl-1H-pyrazol-4-yl)-1,2,4-thiadiazol-5-yl)piperidin-4-ol] | 0.1 to 1 µM | > 100 µM
23 | Cc1nc(N2CCC(O)(c3ccc(F)c(F)c3)CC2)cc(N(C)C2(c3ccccn3)CC2)n1 [Example 108, 4-(3,4-difluorophenyl)-1-(2-methyl-6-(methyl(1-(pyridin-2-yl)cyclopropyl)amino)pyrimidin-4-yl)piperidin-4-ol] | 0.1 to 1 µM | > 100 µM
24 | Cc1nn(C)cc1-c1cc(N2CCC(O)(c3ccc(F)c(F)c3)CC2)nc(-c2ccccc2)n1 [Example 59, 4-(3,4-difluorophenyl)-1-(6-(1,3-dimethyl-1H-pyrazol-4-yl)-2-phenylpyrimidin-4-yl)piperidin-4-ol] | 1 to 10 µM | > 100 µM
25 | Cn1cc(-c2cncc(N3CCC(O)(c4ccc(F)c(F)c4)CC3)n2)cn1 [Example 4, 4-(3,4-difluorophenyl)-1-(6-(1-methyl-1H-pyrazol-4-yl)pyrazin-2-yl)piperidin-4-ol] | 0.1 to 1 µM | 10 to 100 µM

— patent US20220313701A1, “MODULATORS OF TREX1” (Constellation Pharmaceuticals, Inc., priority 2019, published 2022)
